Test results published in patent US9884849B2, “Fluorinated benzofuranyl-pyrimidine derivatives containing a sulfoximine group” (Bayer Pharma Aktiengesellschaft, priority 2014, dated 2018).
Where two headings read alike, the source gives them in different places.

Key:
A2780 cells = experiment: Proliferation assay A2780 (Method 3); assay type: cell-based, human; conditions: A2780, 4 days, crystal violet, read-out: Inhibition of A2780 cell proliferation IC50
Procedure: (§1) Cultivated tumour cells (HeLa, human cervical tumour cells, ATCC CCL-2; NCI-H460, human non-small cell lung carcinoma cells, ATCC HTB-177; A2780, human ovarian carcinoma cells, ECACC #93112519; DU 145, hormone-independent human prostate carcinoma cells, ATCC HTB-81; HeLa-MaTu-ADR, multidrug-resistant human cervical carcinoma cells, EPO-GmbH Berlin; Caco-2, human colorectal carcinoma cells, ATCC HTB-37; B16F10, mouse melanoma cells, ATCC CRL-6475) were plated at a density of 5,000 cells/well (DU145, HeLa-MaTu-ADR), 3,000 cells/well (NCI-H460, HeLa), 2,500 cells/well (A2780), 1,500 cells/well (Caco-2), or 1,000 cells/well (B16F10) in a 96-well multititer plate in 200 μL of their respective growth medium supplemented 10% fetal calf serum. After 24 hours, the cells of one plate (zero-point plate) were stained with crystal violet (see below), while the medium of the other plates was replaced by fresh culture medium (200 μl), to which the test substances were added in various concentrations (0 μM, as well as in the range of 0.001-10 μM; the final concentration of the solvent dimethyl sulfoxide was 0.5%). The cells were incubated for 4 days in the presence of test substances. Cell proliferation was determined by staining the cells with crystal violet: the cells were fixed by adding 20 μl/measuring point of an 11% glutaric aldehyde solution for 15 minutes at room temperature. After three washing cycles of the fixed cells with water, the plates were dried at room temperature. The cells were stained by adding 100 μl/measuring point of a 0.1% crystal violet solution (pH 3.0). After three washing cycles of the stained cells with water, the plates were dried at room temperature. The dye was dissolved by adding 100 μl/measuring point of a 10% acetic acid solution. The extinction was determined by photometry at a wavelength of 595 nm. The change of cell number, in percent, was calculated by normalization of the measured values to the extinction values of the zero-point plate (=0%) and the extinction of the untreated (0 μm) cells (=100%). The IC50 values (inhibitory concentration at 50% of maximal effect) were determined by means of a 4 parameter fit.

CDK9/CycT1 = target: T1, CDK9/CycT1 (Homo sapiens, UniProt P50750); experiment: CDK9/CycT1 kinase assay (Method 1a, TR-FRET); assay type: biochemical; conditions: 10 μM ATP; for Selectivity CDK9 over CDK2: IC50 (CDK2)/IC50 (CDK9): Methods 1a. and 2a.
T1 construct: Recombinant full-length His-tagged human CDK9 and CycT1; His; purchased Invitrogen PV4131; host or cells: insect cells
T1 sequence (P50750 whole entry): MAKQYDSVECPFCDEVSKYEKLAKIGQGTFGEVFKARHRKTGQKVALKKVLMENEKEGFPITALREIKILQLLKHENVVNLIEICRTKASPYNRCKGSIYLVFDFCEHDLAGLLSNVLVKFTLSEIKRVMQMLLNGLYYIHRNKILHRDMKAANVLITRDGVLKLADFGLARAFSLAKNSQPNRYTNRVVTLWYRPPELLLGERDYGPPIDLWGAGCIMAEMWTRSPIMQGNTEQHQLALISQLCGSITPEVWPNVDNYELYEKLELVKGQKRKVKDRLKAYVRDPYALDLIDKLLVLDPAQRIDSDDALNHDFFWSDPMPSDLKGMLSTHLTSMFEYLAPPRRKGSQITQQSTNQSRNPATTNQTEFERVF
T1 sequence (O60563 whole entry partner): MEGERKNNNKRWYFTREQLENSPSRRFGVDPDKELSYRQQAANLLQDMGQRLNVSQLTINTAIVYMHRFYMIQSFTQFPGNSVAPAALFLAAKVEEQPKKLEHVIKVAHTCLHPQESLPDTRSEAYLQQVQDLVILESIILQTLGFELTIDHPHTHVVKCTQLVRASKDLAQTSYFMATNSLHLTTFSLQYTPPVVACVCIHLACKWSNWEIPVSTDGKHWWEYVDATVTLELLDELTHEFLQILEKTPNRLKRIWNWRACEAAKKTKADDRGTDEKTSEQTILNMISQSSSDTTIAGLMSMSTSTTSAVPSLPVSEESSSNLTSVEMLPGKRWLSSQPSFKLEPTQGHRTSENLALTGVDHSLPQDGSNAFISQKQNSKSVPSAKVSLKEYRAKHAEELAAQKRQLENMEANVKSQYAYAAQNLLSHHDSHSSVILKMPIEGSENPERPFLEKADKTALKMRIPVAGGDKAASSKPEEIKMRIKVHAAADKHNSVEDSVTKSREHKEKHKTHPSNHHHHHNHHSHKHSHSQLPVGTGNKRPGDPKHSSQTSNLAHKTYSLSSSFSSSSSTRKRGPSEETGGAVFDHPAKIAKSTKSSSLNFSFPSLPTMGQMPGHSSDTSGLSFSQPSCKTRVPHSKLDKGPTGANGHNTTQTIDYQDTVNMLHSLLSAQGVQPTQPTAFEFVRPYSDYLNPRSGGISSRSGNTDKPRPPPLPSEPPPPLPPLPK
Description: 1a. CDK9/CycT1 Kinase Assay:
CDK9/CycT1-Inhibitory Activity of Compounds of the Present Invention was Quantified Employing the CDK9/CycT1 TR-FRET Assay as Described in the Following Paragraphs:
Recombinant full-length His-tagged human CDK9 and CycT1, expressed in insect cells and purified by Ni-NTA affinity chromatography, were purchased from Invitrogen (Cat. No PV4131). As substrate for the kinase reaction biotinylated peptide biotin-Ttds-YISPLKSPYKISEG (C-terminus in amid form) was used which can be purchased e.g. form the company JERINI Peptide Technologies (Berlin, Germany). For the assay 50 nl of a 100 fold concentrated solution of the test compound in DMSO was pipetted into a black low volume 384 well microtiter plate (Greiner Bio-One, Frickenhausen, Germany), 2 μl of a solution of CDK9/CycT1 in aqueous assay buffer [50 mM Tris/HCl pH 8.0, 10 mM MgCl2, 1.0 mM dithiothreitol, 0.1 mM sodium ortho-vanadate, 0.01% (v/v) Nonidet-P40 (Sigma)] were added and the mixture was incubated for 15 min at 22° C. to allow pre-binding of the test compounds to the enzyme before the start of the kinase reaction. Then the kinase reaction was started by the addition of 3 μl of a solution of adenosine-tri-phosphate (ATP, 16.7 μM=>final conc. in the 5 μl assay volume is 10 μM) and substrate (1.67 μM=>final conc. in the 5 μl assay volume is 1 μM) in assay buffer and the resulting mixture was incubated for a reaction time of 25 min at 22° C. The concentration of CDK9/CycT1 was adjusted depending of the activity of the enzyme lot and was chosen appropriate to have the assay in the linear range, typical concentrations were in the range of 1 μg/mL. The reaction was stopped by the addition of 5 μl of a solution of TR-FRET detection reagents (0.2 μM streptavidine-XL665 [Cisbio Bioassays, Codolet, France] and 1 nM anti-RB(pSer807/pSer811)-antibody from BD Pharmingen [#558389] and 1.2 nM LANCE EU-W1024 labeled anti-mouse IgG antibody [Perkin-Elmer, product no. AD0077]) in an aqueous EDTA-solution (100 mM EDTA, 0.2% (w/v) bovine serum albumin in 100 mM HEPES/NaOH pH 7.0).
The resulting mixture was incubated 1 h at 22° C. to allow the formation of complex between the phosphorylated biotinylated peptide and the detection reagents. Subsequently the amount of phosphorylated substrate was evaluated by measurement of the resonance energy transfer from the Eu-chelate to the streptavidine-XL. Therefore, the fluorescence emissions at 620 nm and 665 nm after excitation at 350 nm was measured in a HTRF reader, e.g. a Rubystar (BMG Labtechnologies, Offenburg, Germany) or a Viewlux (Perkin-Elmer). The ratio of the emissions at 665 nm and at […] was taken as the measure for the amount of phosphorylated substrate. The data were normalised (enzyme reaction without inhibitor=0% inhibition, all other assay components but no enzyme=100% inhibition).

DU145 cells = experiment: Proliferation assay DU145 (Method 3); assay type: cell-based, human; conditions: DU145, 4 days, crystal violet, read-out: Inhibition of DU145 cell proliferation IC50
Procedure: as §1

MOLM-13 cells = experiment: Proliferation assay MOLM-13 (Method 3); assay type: cell-based, human; conditions: MOLM-13, 72-hour exposure, Cell Titre-Glo, read-out: Inhibition of MOLM-13 cell proliferation IC50
Procedure: Non-adherent MOLM-13 human acute myeloid leukemia cells (DSMZ ACC 554) were seeded at a density of 5,000 cells/well in a 96-well multititer plate in 100 μL of growth medium supplemented 10% fetal calf serum. After 24 hours, cell viability of one plate (zero-point plate) was determined with the Cell Titre-Glo Luminescent Cell Viability Assay (Promega), while 50 μL of test compound containing medium was added to the wells of the other plates (final concentrations in the range of 0.001-10 μM and DMSO controls; the final concentration of the solvent dimethyl sulfoxide was 0.5%). Cell viability was assessed after 72-hour exposure with the Cell Titre-Glo Luminescent Cell Viability Assay (Promega). IC50 values (inhibitory concentration at 50% of maximal effect) were determined by means of a 4 parameter fit on measurement data which were normalized to vehicle (DMSO) treated cells (=100%) and measurement readings taken immediately before compound exposure (=0%).

Compound	IC50 (A2780 cells) [nM]	IC50 (CDK9/CycT1) [nM]	Selectivity CDK9 over CDK2: IC50 (CDK2)/IC50 (CDK9) (CDK9/CycT1)	IC50 (DU145 cells; Homo sapiens, DU-145, 96 h) [nM]	IC50 (MOLM-13 cells; Homo sapiens, MOLM-13, 72 h) [nM]	IC50 (DU145 cells) [nM]	IC50 (MOLM-13 cells) [nM]	IC50 (A2780 cells; Homo sapiens, A2780, 96 h) [nM]
CS(=N)(=O)Cc1cccc(Nc2ncc(F)c(-c3ccc(F)c4ccoc34)n2)c1 (single isomer, unassigned) [Example 5, 5-Fluoro-4-(4-fluoro-1-benzofuran-7-yl)-N-{3-[(S-methylsulfonimidoyl)-methyl]-phenyl}-pyrimidin-2-amine]	93	3.7	24	186	115			
CS(=N)(=O)Cc1cccc(Nc2ncc(F)c(-c3ccc(F)c4ccoc34)n2)c1 (single isomer, unassigned) [Example 6, 5-Fluoro-4-(4-fluoro-1-benzofuran-7-yl)-N-{3-[(S-methylsulfonimidoyl)-methyl]-phenyl}-pyrimidin-2-amine]	38	2.6	22			110	117	
CS(=O)(Cc1cc(F)cc(Nc2ncc(F)c(-c3ccc(F)c4ccoc34)n2)c1)=NC#N (single isomer, unassigned) [Example 8, [(3-Fluoro-5-{[5-fluoro-4-(4-fluoro-1-benzofuran-7-yl)pyrimidin-2-yl]amino}benzyl)(methyl)-oxido-λ^6-sulfanylidene]cyanamide]		1.6	39	34	34			37
CS(=O)(Cc1cc(F)cc(Nc2ncc(F)c(-c3ccc(F)c4ccoc34)n2)c1)=NC#N (single isomer, unassigned) [Example 9, [(3-Fluoro-5-{[5-fluoro-4-(4-fluoro-1-benzofuran-7-yl)pyrimidin-2-yl]amino}benzyl)(methyl)-oxido-λ^6-sulfanylidene]cyanamide]	19	2.1	42			34	24	
Cc1cc(CS(C)(=O)=NC#N)cc(Nc2ncc(F)c(-c3ccc(F)c4ccoc34)n2)c1 (single isomer, unassigned) [Example 14, [(3-{[5-Fluoro-4-(4-fluoro-1-benzofuran-7-yl)pyrimidin-2-yl]amino}-5-methylbenzyl)-(methyl)oxido-λ^6-sulfanylidene]cyanamide]		4.4	15	66	75			45
Cc1cc(CS(C)(=O)=NC#N)cc(Nc2ncc(F)c(-c3ccc(F)c4ccoc34)n2)c1 (single isomer, unassigned) [Example 15, [(3-{[5-Fluoro-4-(4-fluoro-1-benzofuran-7-yl)pyrimidin-2-yl]amino}-5-methylbenzyl)-(methyl)oxido-λ^6-sulfanylidene]cyanamide]	63	2.4	40			101	74	
